Ends that are not written are not given here.
How the values were obtained:
Type in all cases: cell-based
[1] = tested on: Daudi target cells; experiment: 51Cr release assay: cytotoxic activity of peptide-activated lymphomononuclear cells against Daudi target cells; conditions: lymphomononuclear cells from three healthy donors, cultured 4 days with 20 micrograms of peptide; Mean ± Standard error
From the text: (§1) Generation of cells with cytotoxic activity towards NK sensitive and NK resistant target cells.
(§2) Peripheral blood mononuclear cells from healthy donors were obtained by leukapheresis, processing 5 to 10 liters of whole blood, using a Fenwall CS-3000 continuous-flow cell separator (Fenwall Laboratories, Deerfield, Illinois, USA). Vascular access was obtained with a double lumen central venous catheter.
(§3) Separated lymphomononuclear cells are washed, counted and resuspended at a concentration of 2x10^6 per ml in RPMI-1640 medium containing 10 units of penicillin per ml, 200 µg of gentamycin per ml, 2mM of glutamine per ml and 2,5% of autologous serum in a PL-732 culture bag (Fenwall Laboratories, Deerfield, Illinois, USA).
(§4) The incubation medium contained 20 micrograms of the peptide being studied. • Peptide 1 (Peptide of Example 1). • Peptide 2 (Peptide of Example 2). • Peptide 3 (Peptide of Example 3). • Peptide 4 (Peptide of Example 4). […]. In this pentadecapeptide Proline is absent. This control peptide has in common with the peptides object the invention only aa11=Asp).
(§5) The cells are cultured for 4 days in a moist-air incubator at 37^ºC, 5% CO2 and 21% O2, One ml sample is drawn daily for microbiological studies.
(§6) Changes in the cytotoxic ability of lymphomononuclear cells before and after peptide activation are measured with the ^51Cr release assay, using K562 and Daudi target cells (Table I). Phenotypic changes of lymphomononuclear cells before and after peptide activation are also assessed with fluorescein labeled […] antibodies and automated flow cytometry (Table II). It is well known that lymphomononuclear cells are very heterogeneous, but the presence of surface markers (CD) allows the description of their phenotypes (Weissman IL, Fathman CG, J Exp Med (1973) 137:504; Small M, Herzenberg CA, Weissman IL, Cell Immunol (1975) 15:109).

[2] = tested on: K562 target cells; experiment: 51Cr release assay: cytotoxic activity of peptide-activated lymphomononuclear cells against K562 target cells; conditions: lymphomononuclear cells from three healthy donors, cultured 4 days with 20 micrograms of peptide; Mean ± Standard error
From the text: as §1, §2, §3, §4, §5, §6

[3] = tested on: lymphomononuclear cells; experiment: Phenotypes of lymphomononuclear cells after peptide activation (fluorescein labeled antibodies, automated flow cytometry); conditions: 20 micrograms of peptide, 4 days, three healthy donors, Mean ± Standard error
Method: as §2, §3
The incubation medium contained 20 micrograms of the peptide being studied. • Peptide 1 (Peptide of Example 1). • Peptide 2 (Peptide of Example 2). • Peptide 3 (Peptide of Example 3). • Peptide 4 (Peptide of Example 4). Control Peptide (Ala-Asp-Ala-Gln-Gln-Asn-Lys-Phe-Asn-Lys-Asp-Gln-Gln-Ser-Val. In this pentadecapeptide Proline is absent. This control peptide has in common with the peptides object the invention only aa11=Asp).
as §5, §6

Molecule | CYTOTOXIC ACTIVITY (%) DAUDI [1] [%] | CYTOTOXIC ACTIVITY (%) K562 [2] [%] | CELLS EXPRESSING SURFACE MARKERS (%) CD3 [3] [%] | CELLS EXPRESSING SURFACE MARKERS (%) CD8 [3] [%] | CELLS EXPRESSING SURFACE MARKERS (%) CD11b [3] [%] | CELLS EXPRESSING SURFACE MARKERS (%) CD14 [3] [%] | CELLS EXPRESSING SURFACE MARKERS (%) CD16 [3] [%] | CELLS EXPRESSING SURFACE MARKERS (%) CD56 [3] [%]
NVLGAPKKLNESQAV [Peptide 1] | 68 ± 6 | 63 ± 8 | 60 ± 1 | 17 ± 1 | 23 ± 5 | 17 ± 4 | 22 ± 7 | 18 ± 6
CC[C@H](C)[C@H](NC(=O)[C@H](CCC(=O)O)NC(=O)[C@H](CCCCN)NC(=O)[C@H](CO)NC(=O)[C@@H](NC(=O)[C@H](CO)NC(=O)[C@@H]1CCCN1C(=O)[C@H](CC(=O)O)NC(=O)[C@H](CC(=O)O)NC(=O)[C@H](CCCCN)NC(=O)[C@H](CC(C)C)NC(=O)[C@@H](N)CO)C(C)C)C(=O)N[C@@H](CC(C)C)C(=O)N[C@@H](C)C(=O)N[C@H](C(=O)O)C(C)C [Peptide 2] | 62 ± 8 | 62 ± 7 | 58 ± 2 | 18 ± 2 | 24 ± 3 | 18 ± 3 | 22 ± 6 | 17 ± 5
CC[C@H](C)[C@H](NC(=O)[C@H](CCC(=O)O)NC(=O)[C@H](CCCCN)NC(=O)[C@H](CO)NC(=O)[C@@H](NC(=O)[C@H](CO)NC(=O)[C@@H]1CCCN1C(=O)[C@H](CC(=O)O)NC(=O)[C@H](CC(=O)O)NC(=O)[C@H](CCCCN)NC(=O)[C@H](CC(C)C)NC(=O)[C@H](CO)NC(=O)[C@H](CCC(N)=O)NC(=O)[C@@H](NC(=O)[C@H](Cc1ccccc1)NC(=O)CNC(=O)[C@@H](N)CC(N)=O)[C@@H](C)CC)C(C)C)C(=O)N[C@@H](CC(C)C)C(=O)N[C@@H](C)C(=O)N[C@@H](CCC(=O)O)C(=O)N[C@@H](C)C(=O)N[C@@H](CCCCN)C(=O)N[C@H](C(=O)O)C(C)C [Peptide 4] | 56 ± 6 | 58 ± 7 |  |  |  |  |  | 
CC(C)[C@H](NC(=O)[C@H](CO)NC(=O)[C@H](CCC(N)=O)NC(=O)[C@H](CCC(N)=O)NC(=O)[C@H](CC(=O)O)NC(=O)[C@H](CCCCN)NC(=O)[C@H](CC(N)=O)NC(=O)[C@H](Cc1ccccc1)NC(=O)[C@H](CCCCN)NC(=O)[C@H](CC(N)=O)NC(=O)[C@H](CCC(N)=O)NC(=O)[C@H](CCC(N)=O)NC(=O)[C@H](C)NC(=O)[C@H](CC(=O)O)NC(=O)[C@H](C)N)C(=O)O [Control Peptide, Ala-Asp-Ala-Gln-Gln-Asn-Lys-Phe-Asn-Lys-Asp-Gln-Gln-Ser-Val, reference compound] | 10 ± 4 | 12 ± 8 |  |  |  |  |  | 
EILNMPNLNEEQRNV [Peptide 3] | 58 ± 9 | 59 ± 9 | 59 ± 3 | 17 ± 2 | 23 ± 4 | 18 ± 3 | 21 ± 5 | 18 ± 5
